Assay results reported in patent US10351549B2, “Amide derivatives having multimodal activity against pain” (priority 2015, dated 2019).

Tested on: human σ1 receptor and human μ-opioid receptor
Experiment: Human σ1 receptor and human μ-opioid receptor radioligand assays (μ and σ1 dual binding)
Parameters: key to μ and σ1 dual binding: +: Both Ki-μ and Ki-σ1>=500 nM; ++: One Ki<500 nM while the other Ki is >=500 nM; +++: Both Ki-μ and Ki-σ1<500 nM; ++++: Both Ki-μ and K1-σ1<100 nM
Settings: joint class for Ki at σ1 ([3H](+)-pentazocine, transfected HEK-293 membranes) and Ki at μ-opioid ([3H]-DAMGO, transfected CHO-K1 membranes)

SMILES | μ and σ1 dual binding | Ki
CCC(=O)N(CCN1CCC(N(C)Cc2ccccc2)C1)c1ncccc1F (centres unmarked) [Example 1, N-(2-(3-(Benzyl(methyl)amino)pyrrolidin-1-yl)ethyl)-N-(3-fluoropyridin-2-yl)propionamide] | ++ | 
CCC(=O)N(CCN1CCC(N(C)Cc2ccccc2)C1)c1ccccc1 (centres unmarked) [Example 2, N-(2-(3-(benzyl(methyl)amino)pyrrolidin-1-yl)ethyl)-N-phenylpropionamide] |  | < 500 nM
CCC(=O)N(CCN1CC[C@H](N(C)Cc2ccccc2)C1)c1ccccc1 [Example 3, (S)-N-(2-(3-(benzyl(methyl)amino)pyrrolidin-1-yl)ethyl)-N-phenylpropionamide] | ++ | 
CCC(=O)N(CCN1CC[C@@H](N(C)Cc2ccccc2)C1)c1ccccc1 [Example 4, (R)-N-(2-(3-(benzyl(methyl)amino)pyrrolidin-1-yl)ethyl)-N-phenylpropionamide] |  | < 500 nM
CCC(=O)N(CCN1CCC(N(C)Cc2ccccc2)C1)c1cccc(C(F)(F)F)n1 (centres unmarked) [Example 5, N-(2-(3-(benzyl(methyl)amino)pyrrolidin-1-yl)ethyl)-N-(6-(trifluoromethyl)pyridin-2-yl)propionamide] |  | ≥ 500 nM
CCC(=O)N(CCN1CCC(N(C)Cc2ccccc2)C1)c1cccc(C(F)(F)F)n1 (centres unmarked) [Example 6] | ++ | 
CCC(=O)N(CCN1CC(N(C)Cc2ccccc2)C1)c1cccc(C(F)(F)F)n1 [Example 9, N-(2-(3-(benzyl(methyl)amino)azetidin-1-yl)ethyl)-N-(6-(trifluoromethyl)pyridin-2-yl)propionamide] | ++ | 
CCC(=O)N(CCN1CCC(N(C)CC(C)C)C1)c1cccc(C(F)(F)F)n1 (centres unmarked) [Example 12, N-(2-(3-(isobutyl(methyl)amino)pyrrolidin-1-yl)ethyl)-N-(6-(trifluoromethyl)pyridin-2-yl)propionamide] |  | ≥ 500 nM
CCOCCN(C)C1CCN(CCN(C(=O)CC)c2cccc(C(F)(F)F)n2)C1 (centres unmarked) [Example 16] |  | ≥ 500 nM
CCOCCN(C)C1CCN(CCN(C(=O)CC)c2cccc(C(F)(F)F)n2)C1 (centres unmarked) [Example 17] |  | ≥ 500 nM
CCC(=O)N(CCN1CC2CN(CC(C)C)CC2C1)c1cccc(C(F)(F)F)n1 (centres unmarked) [Example 18, N-(2-(5-isobutylhexahydropyrrolo[3,4-c]pyrrol-2(1H)-yl)ethyl)-N-(6-(trifluoromethyl)pyridin-2-yl)propionamide] | ++ | 
